Assay results from a melting point compilation (Tetko et al.; mined from patent text by program, amines drawn as free bases though some values may be those of a salt).

Point of comparison: `Cc1cccc(NC(=O)NCC(=O)N(c2ccccc2)c2ccccc2CC(=O)NC(C)(C)C)c1`, melting point 216 °C. Against it:
- O=C(CCCN1CCC2(CC(O)c3cc(Cl)cc(Cl)c32)C1)c1ccc(F)cc1 (stereo not drawn) — lower, 149 to 152 °C
- COc1cc2c(cc1OC)CC(NC(=O)N(C)O)CC2 (stereo not drawn) — lower, 150 to 151 °C
- O=c1oc(-c2ccc(OCC3CCCCC3)cc2)cc(O)c1SCCc1ccccc1 — lower, 130 to 132 °C
- COC(=O)Cc1sc(F)c(N=c2sc(=O)n3n2CCCC3)c1Cl — lower, 99 to 101 °C
- COc1ccc(C2=C(c3ccc(S(C)(=O)=O)cc3)C(C)(C)OC2=O)cc1 — lower, 148 °C
- O=C(O)c1cc(S(=O)(=O)N2CC=CCC2)ccc1Cl — lower, 180 to 182 °C
- C=CCOC(=O)c1[nH]c2cc(Cl)cc(Cl)c2c1C=C1NC(=O)N(c2ccccc2)C1=O — higher, > 250 °C
- Cc1[nH]c2ccccc2c1C(=O)NC1CCN(Cc2ccccc2)CC1 — lower, 150 to 153 °C
- CCCCCCCCCCCCCCCNC(=O)OCC(CO)OC (stereo not drawn) — lower, 42.5 to 43 °C
- N=C(N)c1ccc(O)c([N+](=O)[O-])c1 — higher, > 240 °C
- Nc1ccc(OCC(=O)N2CC=C(c3ccc(F)cc3)CC2)cc1 — lower, 120 to 122 °C
- Cc1ccc(C)n1-c1ccc2c(c1)ncn2-c1cccc(-n2ccnc2)c1 — lower, 141 to 142 °C
- O=C(NC1CCCCC1)c1cccc(Cn2cnc3ccccc32)c1 — lower, 132 to 134 °C
- CCCN(CCC)CCCn1cc(Br)c2c3c(c(-c4ccccc4Cl)cc21)C(=O)NC3=O — lower, 173 to 175 °C
- O=C(NCc1ccccc1)c1ccnc(NC(=O)c2ccccc2F)c1 — lower, 175 to 176 °C
- O=C(Nc1cc(Cl)c(O)c(Cl)c1)c1ccc(O)cc1O — higher, 235 to 237 °C
- CC(C)c1ccc(S(=O)(=O)n2c(COC(C)(C)C(=O)O)cc3cc(C(F)(F)F)ccc32)cc1 — lower, 132 to 134 °C
- CCc1ccc2c(c1)C1CN(C(=O)CCC(=O)c3ccc(F)cc3)CCC1N2 (stereo not drawn) — lower, 120 to 124 °C
- O=C1Nc2cccc(Cl)c2C(=O)N2CCC[C@@H]12 — higher, 264 to 266 °C
- C=CCN1C(=S)N(c2cccc(Oc3ccccc3)c2)C(=O)C1C (stereo not drawn) — lower, 88 °C
- Nc1c(-c2ccc(Cl)cc2Cl)nnn1Cc1ccc(O)cc1 — lower, 172 to 174 °C
- CC1(NC(=O)C(F)(F)F)CN(c2cc3c(cc2F)c(=O)c(C(=O)O)cn3-c2ccc(F)cc2)C1 — lower, 146 to 151 °C
- CCOC(=O)Cc1nc(-c2ccccc2)oc1-c1ccsc1 — lower, 90 to 91 °C
- CCn1nc2c(N)nc3ccccc3c2c1CC(C)(C)O — higher, 223 to 225 °C
- COc1ccc2c(c1)N(CCNC(C)=O)CC(c1ccccc1)O2 (stereo not drawn) — lower, 153 to 154 °C
- O=C(O)c1cccc([N+](=O)[O-])c1SCCO — lower, 91 to 93 °C
- CCOC(=O)c1cnc(O)nc1NCc1ccc(OC)c(Cl)c1 — lower, 117 to 122 °C
- CCC(=O)Oc1cc2c(s1)CCN(C(C(=O)C1CC1)c1ccccc1F)C2 (stereo not drawn) — lower, 101 to 102 °C
- CCOC(=O)c1c(CN(CC)CC)nc2sc3c(c2c1-c1ccc(Cl)cc1)CCN(C(=O)c1ccccc1)C3 — lower, 177 to 178 °C
- CCOC(=O)c1c(Cn2cnnc2)nc2cc(OC)c(OC)cc2c1-c1ccc(OC)c(OC(C)C)c1 — lower, 170 to 171 °C
- CCCOc1cc(-n2c(=O)cc(C(F)(F)F)n(C)c2=O)c(F)cc1Cl — lower, 103 to 104 °C
- CCCc1c(Cc2ccc(-c3ccccc3C#N)cc2)c(O)nc2ccnn12 — higher, 236 °C
- CCOC(=O)C1=C(C#N)NC(C)=C(C(=O)OCCOCc2ccccc2)C1c1cccc([N+](=O)[O-])c1 (stereo not drawn) — lower, 114 to 115 °C
- CC12CC(c3ccc(C=O)cc3)C3=C4CCC(=O)C=C4CCC3C1CCC2O (stereo not drawn) — lower, 197 to 200 °C
- O=c1c(Br)c(OCc2ccc(F)c(F)c2F)ccn1Cc1cccc(F)c1 — lower, 176 to 178 °C
- Cc1sc(N2C(=O)c3ccccc3C2=O)c(C(=O)c2ccc(Cl)cc2)c1CN(C)Cc1ccccc1 — lower, 197 to 199 °C
- Clc1ccccc1Oc1ncc2c(-c3cccs3)n[nH]c2n1 — higher, 221 to 223 °C
- NP(N)(=O)Oc1ccc2cccc(NS(=O)(=O)c3ccc([N+](=O)[O-])cc3)c2c1 — higher, 234 to 235 °C
- NN=CNCCCCNC(=O)[C@@H]1CCCN1C(=O)[C@@H](CCC(N)=O)NS(=O)(=O)c1ccc2ccccc2c1 — lower, 72 to 74 °C
- Cc1c2cccc(-c3cccc(C(=O)NCCC#N)c3)c2nn1Cc1cccc(C(F)(F)F)c1 — lower, 196 to 197 °C
- N#Cc1ccc2c(c1)NCc1ccccc1O2 — lower, 104 to 105 °C
- CCCC1(c2ccccc2Cl)C(=O)Nc2ccc(OCC)cc21 (stereo not drawn) — lower, 136 °C
- CCN(CC)C(=O)c1ccc(/C=C(\C)c2ccc3c(c2)C(C)(C)CCC3(C)C)cc1 — lower, 111 to 112 °C
- CCCCCn1c2ccccc2c2cc(C(=O)OCC)ncc21 — lower, 92 to 93 °C
- COc1nc2ccccc2c2c1ncn2CC(O)CO (stereo not drawn) — not separable, 214 to 216 °C
- Cc1cc(Cc2cnc(N)nc2N)cc(C)c1N — higher, 258 to 260 °C
- C#CCN1C(=O)CCc2cc(F)c(-n3nc4ccc(Cl)cn4c3=O)cc21 — lower, 200 to 202 °C
- N#CCCNC(=O)c1cccc(-c2ccc3c(c2)N(CCc2cccc(C(F)(F)F)c2)CC3)c1 — lower, 197 to 198 °C
- c1ccc(-c2nc3ncccc3o2)cc1 — lower, 125 to 127 °C
- FC(F)(F)c1cc(CO[C@@H]2CCCN(Cc3nc4ccccc4o3)[C@@H]2c2ccccc2)cc(C(F)(F)F)c1 (relative stereo) — lower, 95 to 97 °C
- CSc1ccc2ccc(Br)cc2c1 — lower, 80 to 81 °C
- CC(=O)OC1CC2CCC3C4CC(N5CCCCC5)C(=O)C4(C)CCC3C2(C)CC1N1CCCCC1 (stereo not drawn) — lower, 154 °C
- COc1cc(COc2nn(-c3ccccc3)cc2/C=C/P(=O)(O)O)ccc1OCc1nc(-c2ccco2)oc1C — lower, 138 to 140 °C
- O=C(O)[C@H](Cc1cccc(C(F)(F)F)c1)[C@@H](O)c1ccc(F)cc1 (racemic) — lower, 116 to 118 °C
- O=C(Cc1noc2ccccc12)N[C@H]1CC[C@H](CCN2CCN(c3nccc4c3OCC4)CC2)CC1 — lower, 211 °C
- CCCCCCCCCCOc1ccc(NC(=O)c2ccc(O)cc2)cc1OCCCCCCCCCC — lower, 137 °C
- CCc1n[nH]c(CC)c1CCCCCCOc1ccc(Cl)cc1 — lower, 130 to 132 °C
- O=c1oc(-c2ccc3c(c2)OCCO3)cc(O)c1SCc1ccccc1 — lower, 192 to 193 °C
- OCc1c(-c2ccccc2)c(-c2ccccc2)nn1Cc1ccccc1 — lower, 138 °C
- O=[N+]([O-])c1cc(CS(=O)(=O)Cc2ccc(O)c([N+](=O)[O-])c2)ccc1O — lower, 166 to 168 °C
- CCCN(CCC)CCc1ccc(OC)c(C(=O)O)c1OC — lower, 174 to 177 °C
- CC(C(=O)Oc1cc(=O)n(-c2cccc(C(F)(F)F)c2)c2ncccc12)c1ccccc1 (stereo not drawn) — lower, 42 to 57 °C
- CCOP(=O)(CC(=O)Nc1c(C(C)C)cccc1C(C)C)NCC(c1ccccc1)c1ccccc1 (stereo not drawn) — lower, 172 to 176 °C
- CCCn1nc2c(N)nc3ccccc3c2c1CCCCC(=N)NO — higher, 222 to 224 °C
- CCOc1cc2ncc(C#N)c(Nc3ccc(OCc4ccccc4)c(Cl)c3)c2cc1NC(=O)CC(CN(C)C)N(C)C (stereo not drawn) — lower, 102 to 104 °C
- BrCc1nc2cc3ccccc3cc2nc1CBr — lower, 190 to 191 °C
- CC(C(=O)OCCO)n1c(-c2ccc(Cl)cc2)nc2cccnc21 (stereo not drawn) — lower, 112 to 114 °C
